Here are results for 7 molecules from US20240166690A1, “MULTI-TARGET CY[…] FOR OPIOID/NEUROPEPTIDE FF RECEPTORS, AND PREPARATION THEREFOR AND APPLICATION THEREOF” (SHANGHAI TIANCI LIFE SCIENCE DEVELOPMENT CO., LTD., priority 2021, published 2024).

For one assay, the target named is T1, Kappa-opioid receptor (Homo sapiens, UniProt P41145).
T1 construct: expressed in transfected cells; host or cells: HEK293
As to the kind of experiment: cAMP functional experiment, Kappa-opioid receptor (forskolin-induced cAMP accumulation). It counts as cell-based. As for the experimental part: (§1) The agonistic activity of the cyclopeptide molecule of the present invention against Mu-opioid receptor, Delta-opioid receptor, Kappa-opioid receptor, NPFF1 receptor and NPFF2 receptor was evaluated by detecting the regulation of the cyclopeptide molecule of the present invention on the intracellular accumulation of cyclic adenosine monophosphate (cAMP) induced by Forskolin in HEK293 cells stably expressing these five receptors. The experimental method was: the cells were seeded in 24 well plates with 120000 cells per well, and were cultured for more than 20 hours. At the beginning of the experiment, the culture medium in the culture dish was suck out, and then 500 μL of preheated serum-free medium containing 1 mM of IBMX was added, the mixture was incubated at 37° C. for 10 minutes. Then each 10 μL of the drug to be tested and 10 μM of forskolin (final concentration) were added to each well. The mixture was incubated at 37° C. for 30 minutes. After incubation, all the liquid was suck out from the culture dish, 500 μL of 0.2 N hydrochloric acid was added to each well, the mixture was incubated at room temperature for 30 minutes to promote cell lysis. After lysis was complete, NaOH was added to neutralize the hydrochloric acid solution used for lysis. Then all the liquid was suck out from the culture dish into centrifuge tubes, the liquid was centrifuged at 12000 rpm for 2 minutes. 50 μL was taken to a clean centrifuge tube, 100 μL of 60 μg/μL PKA was added, and 100 μL of TE cAMP buffer was added to the blank control group (B). Another 50 μL of 0.5 μ Ci[^3H]cAMP was added to each of the above centrifuge tubes, the mixture was quickly mixed and incubated at 4° C. for more than 2 hours. After incubation, another 100 μL of activated carbon suspension was added to each tube, the mixture was vortex agitated evenly, placed in an ice bath for 1 minute, centrifuged at 5000 rpm for 4 minutes. 200 μL of supernatant after centrifugation in each tube was suck out to a 24 well plate, with an additional 700 μL of scintillator liquid added per well, then the 24 well plate was sealed with adhesive film, placed for 3 hours, then placed on the scintillation instrument for measurement.
(§2) The inhibitory effect of cAMP was represented by the percentage (% control) of drug inhibition of intracellular cAMP accumulation induced by Forskolin, wherein % control=(cAMP content when treated with Forskolin−cAMP content when Forskolin co-treated with the test drug)/(cAMP content when treated with Forskolin−cAMP content when treated with solvent). The related % control data was represented by mean±S.E.M. The dose-effect relationship of the drug was statistically analyzed using a nonlinear regression model, and the IC50 values of the multi-target cyclopeptide molecule on inhibition of Forskolin induced intracellular cAMP accumulation were calculated using the statistical software GraphPad Prism version 5.0.
In general terms: Changes in cAMP serve as a functional read-out for many G protein-coupled receptors.

The next assay deals with T2, NPFF1 receptor (Homo sapiens, UniProt Q9GZQ6).
T2 construct: expressed in transfected cells; host or cells: HEK293
As to the kind of experiment: cAMP functional experiment, NPFF1 receptor (forskolin-induced cAMP accumulation). It counts as cell-based. The procedure:
as §1, §2

The target in the next assay is T3, NPFF2 receptor (Homo sapiens, UniProt Q9Y5X5).
T3 construct: expressed in transfected cells; host or cells: HEK293
Put plainly: cAMP functional experiment, NPFF2 receptor (forskolin-induced cAMP accumulation). The format is cell-based. As for the experimental part:
as §1, §2

The target in a further assay is T4, Mu-opioid receptor (Homo sapiens, UniProt P35372).
T4 construct: expressed in transfected cells; host or cells: HEK293
As to the kind of experiment: cAMP functional experiment, Mu-opioid receptor (forskolin-induced cAMP accumulation). The format is cell-based. The procedure:
as §1, §2

In assay [1] the test system is Kunming male mice. Put plainly: Photothermal tail flick experiment, oral administration. The format is in vivo. Conditions: tail flick; for Maximum analgesic time: oral administration at the maximum analgesic dose. The procedure: (§3) Two administration methods were used: peripheral subcutaneous administration and oral administration. Subsequently, the analgesic activity of the drug was studied using an acute pain model of photothermal tail flick in mice.
1 mL sterile syringe was used for oral administration (p.o.), the pinhead was replaced with a mouse gastric lavage needle, and […] of the drug was orally administered. The skin on the neck and back of the mouse was grasped with the left hand with the abdomen facing upwards. Noted that the mouse's entire body was fixed to vertical, which was beneficial for oral gavage. A gastric lavage needle (No. 12 needle and 1 mL syringe) was held in the right hand and was inserted to the esophagus along the upper jaw which is pressed the tongue tightly from the corner of the mouse's mouth. Gastric lavage fluid can be injected when the needle inserted 2.5 cm. The inserting length of the needle should be determined through practice in advance, as there is a sense of falling into a hole after the needle is inserted. If the injection position was appropriate, it should be very smooth. […] This can cause immediate death of the mouse after gavage.
(§4) The photothermal tail flick experiment is based on the experimental method summarized by D'Amour and Smith to optimize the experimental parameters. The experiment selected Kunming male mice with body weigh 21±2 g, and ambient temperature controlled at 22±2° C. The experimental mice were allowed to drink water freely and were moved from the breeding room to the experimental area for adaptation for 30 minutes before starting the experiment. Then the mice were grab with the right hand and the tail hang freely. Then the mice's tail were placed on a radiation light source, 2-3 mm away from the mice tail. The intensity of radiation heat was adjusted to the tail flick time of mice being 3-5 s, which is the basic pain threshold of photothermal tail flick. The irradiation time of the mice tail should not exceed 10 s to prevent scalding of the mice tail, which was the maximum latency for photothermal tail flick. After administration, time points of 10, 20, 30, 45, 60, 90, 120, 180, 240, 300, 360, and 420 minutes were selected to measure the tail flick latency of mice after administration.
(§5) The analgesic effect of drugs was generally evaluated using the maximum analgesic effect MPE (%), MPE (%)=100×[(pain threshold after administration−basic pain threshold)/(10 seconds−basic pain threshold)]. 50% effective dose (ED50) refers to the corresponding drug dose that causes a 50% effect. ED50 and 95% confidence interval were calculated using MPE (%) and the drug concentration that achieves the maximum analgesic effect MPE (%) by the statistical software GraphPad Prism 5.0. The difference in analgesic effects was statistically analyzed using one-way ANOVA (Dunnett test), *P<0.05, **P<0.01, and ***P<0.001 indicated significance of the difference between the group with only drug injected and the saline group.

Assay [2] relates to Kunming male mice. As to the kind of experiment: Photothermal tail flick experiment, subcutaneous injection. The format is in vivo. The settings on record: for ED50 value (95% confidence interval), analgesic activity: photothermal tail flick. The procedure:
as §3
Subcutaneous administration on the back was chosen for subcutaneous administration (s.c.). A sterile 1 mL syringe was used and the drug with the volume of 0.1 mL/10 g was injected for administration. The back skin was grasped with the right hand, the needle was tilted in, and the drug was injected subcutaneously into the mouse's back. After the needle was inserted, shook it left and right, and observe to confirm that the needle had indeed entered the subcutaneous area to prevent the needle from puncturing the skin and leaking the drug.
as §4, §5

The target of another assay is T5, Delta-opioid receptor (Homo sapiens, UniProt P41143).
T5 construct: expressed in transfected cells; host or cells: HEK293
As to the kind of experiment: cAMP functional experiment, Delta-opioid receptor (forskolin-induced cAMP accumulation). The format is cell-based. The procedure:
as §1, §2

Bridge positions count the residues as written; N and C are the ends. Square brackets hold non-standard residues; d marks the D form. Ends that are not written are not given here. Peptide text beside a SMILES is read from it. NMeF = CN[C@@H](Cc1ccccc1)C(=O)O; dOrn = NCCC[C@@H](N)C(=O)O; dDap = NC[C@@H](N)C(=O)O

T3 sequence (Q9Y5X5 whole entry): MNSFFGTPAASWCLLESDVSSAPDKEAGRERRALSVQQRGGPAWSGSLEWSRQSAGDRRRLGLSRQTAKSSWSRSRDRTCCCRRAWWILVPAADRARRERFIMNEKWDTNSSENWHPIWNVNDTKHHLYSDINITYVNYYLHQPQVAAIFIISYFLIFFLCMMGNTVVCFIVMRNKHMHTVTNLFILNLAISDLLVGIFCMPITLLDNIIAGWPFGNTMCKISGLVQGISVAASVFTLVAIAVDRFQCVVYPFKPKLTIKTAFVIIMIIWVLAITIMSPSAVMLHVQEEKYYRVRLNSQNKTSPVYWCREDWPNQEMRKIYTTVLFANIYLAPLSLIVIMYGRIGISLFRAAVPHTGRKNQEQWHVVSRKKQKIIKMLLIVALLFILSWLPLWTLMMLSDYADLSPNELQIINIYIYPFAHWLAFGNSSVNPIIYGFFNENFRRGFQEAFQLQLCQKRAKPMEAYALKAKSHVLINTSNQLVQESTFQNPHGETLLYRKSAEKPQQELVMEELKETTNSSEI
T1 sequence (P41145 whole entry): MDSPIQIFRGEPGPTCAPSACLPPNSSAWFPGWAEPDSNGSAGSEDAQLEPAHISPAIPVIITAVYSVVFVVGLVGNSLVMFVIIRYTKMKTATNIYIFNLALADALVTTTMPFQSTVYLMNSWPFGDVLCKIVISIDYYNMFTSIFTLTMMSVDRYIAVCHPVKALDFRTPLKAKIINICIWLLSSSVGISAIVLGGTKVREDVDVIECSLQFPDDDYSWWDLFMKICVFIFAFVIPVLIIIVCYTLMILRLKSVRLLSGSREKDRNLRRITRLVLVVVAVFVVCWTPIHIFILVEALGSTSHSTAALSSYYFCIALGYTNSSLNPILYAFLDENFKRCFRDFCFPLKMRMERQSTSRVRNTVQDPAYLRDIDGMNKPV
T2 sequence (Q9GZQ6 whole entry): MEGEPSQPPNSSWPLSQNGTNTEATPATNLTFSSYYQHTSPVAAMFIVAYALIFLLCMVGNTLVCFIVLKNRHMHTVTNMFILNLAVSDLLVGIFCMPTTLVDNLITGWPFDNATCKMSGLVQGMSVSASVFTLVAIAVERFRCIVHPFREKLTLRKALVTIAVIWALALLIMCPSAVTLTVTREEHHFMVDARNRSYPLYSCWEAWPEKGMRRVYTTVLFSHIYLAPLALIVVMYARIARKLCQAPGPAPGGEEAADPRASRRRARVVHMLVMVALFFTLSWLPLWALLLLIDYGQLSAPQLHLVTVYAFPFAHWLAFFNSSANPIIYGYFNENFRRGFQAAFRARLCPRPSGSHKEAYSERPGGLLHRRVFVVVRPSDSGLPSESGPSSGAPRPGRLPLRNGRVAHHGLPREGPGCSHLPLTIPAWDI
T5 sequence (P41143 whole entry): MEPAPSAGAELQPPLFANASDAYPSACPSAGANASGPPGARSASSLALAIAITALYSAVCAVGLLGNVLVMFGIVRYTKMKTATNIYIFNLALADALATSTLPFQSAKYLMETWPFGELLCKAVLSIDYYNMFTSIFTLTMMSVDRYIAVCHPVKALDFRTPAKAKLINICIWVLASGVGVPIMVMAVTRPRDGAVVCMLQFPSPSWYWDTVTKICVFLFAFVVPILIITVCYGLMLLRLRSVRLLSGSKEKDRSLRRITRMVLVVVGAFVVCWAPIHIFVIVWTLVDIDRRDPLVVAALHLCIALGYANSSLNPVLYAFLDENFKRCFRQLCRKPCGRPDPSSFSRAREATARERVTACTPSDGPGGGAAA
T4 sequence (P35372 whole entry): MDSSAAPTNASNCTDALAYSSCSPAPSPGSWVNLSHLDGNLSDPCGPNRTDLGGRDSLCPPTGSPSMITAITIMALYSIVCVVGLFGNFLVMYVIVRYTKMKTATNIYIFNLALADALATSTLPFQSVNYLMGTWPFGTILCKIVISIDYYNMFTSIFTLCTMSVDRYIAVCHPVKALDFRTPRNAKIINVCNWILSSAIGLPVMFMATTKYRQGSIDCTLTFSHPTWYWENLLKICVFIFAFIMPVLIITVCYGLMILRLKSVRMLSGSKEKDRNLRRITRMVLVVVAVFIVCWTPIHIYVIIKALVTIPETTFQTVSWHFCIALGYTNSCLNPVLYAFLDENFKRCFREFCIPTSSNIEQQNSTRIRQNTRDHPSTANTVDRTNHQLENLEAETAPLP

By IC50 is commonly meant the concentration that gives 50% inhibition. A lower IC50 goes with inhibition by little substance. In the case of `CN1C(=O)CNC(=O)[C@H](NC(=O)[C@@H](N)Cc2ccc(O)cc2)CCCNC(=O)C[C@@H](C(=O)N2CCC[C@H]2C(=O)N[C@@H](CCC(N)=O)C(=O)N[C@@H](CCCNC(=N)N)C(=O)N[C@@H](Cc2ccccc2)C(N)=O)NC(=O)[C@@H]1Cc1ccccc1` [Compound 8, Tyr-c^[2,5][D-Orn-Gly-NMe-Phe-Asp]-Pro-Gln-Arg-Phe-NH2] (H-Y[dOrn]G[NMeF]DPQRF-NH2; lactam 2-5), the IC50 against Kappa-opioid receptor stood at 139 nM; against NPFF1 receptor it was 439 nM; against NPFF2 receptor it was 133 nM; at Mu-opioid receptor it was 168 nM; against Delta-opioid receptor, 659 nM. Also, the Maximum analgesic time in the assay with Kunming male mice [1] came out at 30 min. The molecule further registered an analgesic duration in the assay on Kunming male mice [1] (oral administration) of 240 min. Moreover, in the assay with Kunming male mice [2], the “ED50 value (95% confidence interval), analgesic activity” value (shortened to “ED50 value (95% confidence interval)”) is on record as 15.0 (13.8 to 16.4) μg/kg.

For `CN1C(=O)CNC(=O)[C@H](NC(=O)[C@@H](N)Cc2ccc(O)cc2)CNC(=O)C[C@@H](C(=O)N2CCC[C@H]2C(=O)N[C@@H](CCC(N)=O)C(=O)N[C@@H](CCCNC(=N)N)C(=O)N[C@@H](Cc2ccccc2)C(N)=O)NC(=O)[C@@H]1Cc1ccccc1` [Compound 10, Tyr-c^[2,5][D-Dap-Gly-NMe-Phe-Asp]-Pro-Gln-Arg-Phe-NH2] (H-Y[dDap]G[NMeF]DPQRF-NH2; lactam 2-5), the IC50 against Kappa-opioid receptor came out at 136 nM; against NPFF1 receptor it was 90.1 nM; on NPFF2 receptor, 349 nM; against Mu-opioid receptor it was 238 nM; against Delta-opioid receptor, 374 nM. This molecule gave a Maximum analgesic time with Kunming male mice [1] of 30 min. In the assay with Kunming male mice [1] (oral administration), the analgesic duration was determined as 240 min. Also, the “ED50 value (95% confidence interval)” value with Kunming male mice [2] is 15.0 (13.6 to 16.5) μg/kg.

Turning to `CN1C(=O)CNC(=O)[C@@H](NC(=O)[C@@H](N)Cc2ccc(O)cc2)CCCCNC(=O)C[C@@H](C(=O)N2CCC[C@H]2C(=O)N[C@@H](CCC(N)=O)C(=O)N[C@@H](CCCNC(=N)N)C(=O)N[C@@H](Cc2ccccc2)C(N)=O)NC(=O)[C@@H]1Cc1ccccc1` [Compound 3, Tyr-c^[2,5][Lys-Gly-NMe-Phe-Asp]-Pro-Gln-Arg-Phe-NH2] (H-YKG[NMeF]DPQRF-NH2; lactam 2-5), the IC50 was 320 nM against Kappa-opioid receptor; 28.9 nM against NPFF1 receptor; 112 nM against NPFF2 receptor; 70.7 nM on Mu-opioid receptor; 28.2 nM against Delta-opioid receptor. For the same molecule, the Maximum analgesic time in the assay on Kunming male mice [1] is 20 min. The molecule also had an analgesic duration with Kunming male mice [1] (oral administration) of 240 min. Besides, the “ED50 value (95% confidence interval)” value with Kunming male mice [2] is on record as 25.4 (22.1 to 29.2) μg/kg.

For the molecule `CN1C(=O)CNC(=O)[C@H](NC(=O)[C@@H](N)Cc2ccc(O)cc2)CCCCNC(=O)C[C@@H](C(=O)NCC(=O)N[C@@H](CCC(N)=O)C(=O)N[C@@H](CCCNC(=N)N)C(=O)N[C@@H](Cc2ccccc2)C(N)=O)NC(=O)[C@@H]1Cc1ccccc1` [Compound 12, Tyr-c^[2,5][D-Lys-Gly-NMe-Phe-Asp]-Gly-Gln-Arg-Phe-NH2] (H-Y[dK]G[NMeF]DGQRF-NH2; lactam 2-5), the IC50 worked out at 97.4 nM against Kappa-opioid receptor; 58.6 nM against NPFF1 receptor; 93 nM against NPFF2 receptor; 82.6 nM at Mu-opioid receptor; 45.2 nM at Delta-opioid receptor. This molecule came in with a Maximum analgesic time in the assay with Kunming male mice [1] of 20 min. In the assay with Kunming male mice [1] (oral administration), the analgesic duration was 240 min.

As to “Tyr-D-Ala-Gly-NMe-Phe-Gly-Pro-Gln-Arg-Phe-NH2 (Y[dA]G[NMeF]GPQRF-NH2) [DN-9, multi-target parent peptide for opioid receptor/neuropeptide FF receptors, chemical template, reference compound]”, the Maximum analgesic time in the assay on Kunming male mice [1] amounted to 20 min. Moreover, in the assay on Kunming male mice [1] (oral administration), the analgesic duration stood at 90 min and the “oral analgesic activity” value was “only produces strong analgesic activity at a high-dose of 40 mg/kg”. The “ED50 value (95% confidence interval)” value in the assay on Kunming male mice [2] amounted to 228 µg/kg. The “effective analgesic actuation duration” value in the assay on Kunming male mice [2] (tail flick) was 90 min.

Regarding `CN1C(=O)CNC(=O)[C@@H](NC(=O)[C@@H](N)Cc2ccc(O)cc2)CCCCNC(=O)C[C@H](C(=O)N2CCC[C@H]2C(=O)N[C@@H](CCC(N)=O)C(=O)N[C@@H](CCCNC(=N)N)C(=O)N[C@@H](Cc2ccccc2)C(N)=O)NC(=O)[C@@H]1Cc1ccccc1` [Compound 4, Tyr-c^[2,5][Lys-Gly-NMe-Phe-D-Asp]-Pro-Gln-Arg-Phe-NH2] (H-YKG[NMeF][dD]PQRF-NH2; lactam 2-5), the IC50 on NPFF1 receptor stood at 104 nM; against NPFF2 receptor, 81.5 nM; on Mu-opioid receptor, 166 nM; against Delta-opioid receptor it was 923 nM. In addition, in the assay on Kunming male mice [1], the Maximum analgesic time stood at 20 min. The molecule further came in with an analgesic duration with Kunming male mice [1] (oral administration) of 240 min. The “ED50 value (95% confidence interval)” value with Kunming male mice [2] was 30.3 (19.4 to 47.1) μg/kg.

Regarding `CN1C(=O)CNC(=O)[C@H](NC(=O)[C@@H](N)Cc2ccc(O)cc2)CCCCNC(=O)C[C@H](C(=O)N2CCC[C@H]2C(=O)N[C@@H](CCC(N)=O)C(=O)N[C@@H](CCCNC(=N)N)C(=O)N[C@@H](Cc2ccccc2)C(N)=O)NC(=O)[C@@H]1Cc1ccccc1` [Compound 5, Tyr-c^[2,5][D-Lys-Gly-NMe-Phe-D-Asp]-Pro-Gln-Arg-Phe-NH2] (H-Y[dK]G[NMeF][dD]PQRF-NH2; lactam 2-5), the IC50 came out at 528 nM against NPFF1 receptor, 190 nM at NPFF2 receptor, 586 nM on Mu-opioid receptor and 345 nM against Delta-opioid receptor. The Maximum analgesic time in the assay with Kunming male mice [1] is recorded as 20 min. The molecule also showed an analgesic duration with Kunming male mice [1] (oral administration) of 240 min. Further, the “ED50 value (95% confidence interval)” value with Kunming male mice [2] is listed as 23.2 (19.1 to 28.2) μg/kg.
